From ChEMBL document CHEMBL5360582, “Caryophyllene Sesquiterpenes from a Chaetomium globosum Endophyte of the Canadian Medicinal Plant Empetrum nigrum” (J Nat Prod, 2023)
≈ marks a conversion by molar mass, not a printed value. Calls of active or inactive are those of the source. The calls are words filed in the database; no cut-off is given here.

Columns and labels:
[1] = tested on: Mycobacterium tuberculosis; assay: Antimycobacterial activity against Mycobacterium tuberculosis H37Ra ATCC 25177 assessed as inhibition of bacterial growth; assay type: functional, organism-based
Staphylococcus aureus [2] = assay: Antibacterial activity against Staphylococcus aureus ATCC 29213 assessed as inhibition of bacterial growth; assay type: functional, organism-based
Staphylococcus aureus [3] = assay: Antibacterial activity against Staphylococcus aureus ATCC 29213 assessed as inhibition of bacterial growth at 100 microg/ml; assay type: functional, organism-based; details: dose 100.0 µg/ml
Pseudomonas aeruginosa = assay: Antibacterial activity against Pseudomonas aeruginosa ATCC 10145 assessed as inhibition of bacterial growth at 100 microg/ml; assay type: functional, organism-based; details: dose 100.0 µg/ml
[4] = tested on: Mycobacterium tuberculosis; assay: Antimycobacterial activity against Mycobacterium tuberculosis H37Ra ATCC 25177 assessed as inhibition of bacterial growth at 100 microg/ml; assay type: functional, organism-based; details: dose 100.0 µg/ml
Candida albicans = assay: Antifungal activity against Candida albicans ATCC 14053 assessed as inhibition of bacterial growth at 100 microg/ml; assay type: functional, organism-based; details: dose 100.0 µg/ml
SMMC-7721 = assay: Cytotoxicity against human SMMC-7721 cells assessed as inhibition of cell growth incubated for 68 hrs by MTT assay; assay type: functional, cell-based; details: SMMC-7721, 68 h

Structure (SMILES) | Activity (Staphylococcus aureus [3]) | Activity (Pseudomonas aeruginosa) | Activity [4] | Activity (Candida albicans) | IC50 (SMMC-7721) [µM] | other results
C/C1=C/[C@@H](OC(=O)CCC(=O)O)/C=C(/C=O)[C@H]2CC(C)(C)[C@]2(O)CC1 | – | – | – | – | – | IC50 [1]: 36.8 µg/mL (≈ 105 µM); IC50 (Staphylococcus aureus [2]): 83 µg/mL (≈ 237 µM)
CC1(C)C[C@@H]2[C@@]3(CO)C=C[C@@H](O)[C@@]3(C)CC[C@]21O | inactive | inactive | inactive | inactive | – | –
COc1cc([C@@H]2c3cc4c(cc3[C@@H](O[C@@H]3O[C@@H]5CO[C@@H](C)O[C@H]5[C@H](O)[C@H]3O)[C@H]3COC(=O)[C@H]23)OCO4)cc(OC)c1O [ETOPOSIDE] | – | – | – | – | 23.2 | –
CO[C@H]1[C@@H]2[C@@H](O)O[C@]3([C@H](OC(C)=O)C/C(C)=C\[C@@H]1OC)[C@H]2CC3(C)C | – | – | – | – | 28.3 | –
CC1(C)C[C@@H]2/C(CO)=C\C=C/[C@@](C)(O)CC[C@]21O | inactive | inactive | inactive | inactive | – | –
